Test results reported in ChEMBL document CHEMBL1201862, “PubChem BioAssay data set” (2004).
Activity calls are given as the source filed them.

Columns and labels:
[1] = target: T1, Sentrin-specific protease 7 (Homo sapiens, UniProt Q9BQF6); format: functional;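 also: Luminescence-based dose-response confirmation of ultra-high-throughput screening hits, measuring inhibition of SENP7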
T1 sequence (Q9BQF6 whole entry): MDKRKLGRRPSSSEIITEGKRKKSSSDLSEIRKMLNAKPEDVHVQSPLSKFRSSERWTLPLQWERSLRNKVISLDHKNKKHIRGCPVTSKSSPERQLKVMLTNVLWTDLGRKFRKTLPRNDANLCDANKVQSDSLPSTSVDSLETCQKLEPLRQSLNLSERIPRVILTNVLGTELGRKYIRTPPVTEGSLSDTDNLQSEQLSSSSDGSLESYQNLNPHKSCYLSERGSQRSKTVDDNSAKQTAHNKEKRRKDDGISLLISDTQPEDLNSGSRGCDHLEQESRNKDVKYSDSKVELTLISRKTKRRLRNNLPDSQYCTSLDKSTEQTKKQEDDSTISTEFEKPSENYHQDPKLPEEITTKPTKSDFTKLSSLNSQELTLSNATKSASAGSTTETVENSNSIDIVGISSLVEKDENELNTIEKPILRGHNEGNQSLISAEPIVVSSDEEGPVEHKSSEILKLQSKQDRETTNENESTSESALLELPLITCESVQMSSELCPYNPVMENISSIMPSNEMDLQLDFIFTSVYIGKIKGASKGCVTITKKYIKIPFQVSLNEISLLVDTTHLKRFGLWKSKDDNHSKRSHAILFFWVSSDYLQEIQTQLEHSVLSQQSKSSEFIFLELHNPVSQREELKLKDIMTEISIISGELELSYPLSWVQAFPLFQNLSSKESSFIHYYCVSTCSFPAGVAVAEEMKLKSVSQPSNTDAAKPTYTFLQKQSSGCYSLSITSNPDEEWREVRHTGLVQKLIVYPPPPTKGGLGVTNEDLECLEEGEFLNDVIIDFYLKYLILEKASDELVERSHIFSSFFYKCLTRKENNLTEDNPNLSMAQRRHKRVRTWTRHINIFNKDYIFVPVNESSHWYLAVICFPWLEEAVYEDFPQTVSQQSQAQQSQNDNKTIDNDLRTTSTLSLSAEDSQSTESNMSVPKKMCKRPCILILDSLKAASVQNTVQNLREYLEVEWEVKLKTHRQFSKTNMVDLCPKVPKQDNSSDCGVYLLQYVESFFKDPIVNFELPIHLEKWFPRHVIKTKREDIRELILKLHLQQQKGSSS

[2] = target: T2, Sentrin-specific protease 8 (Homo sapiens, UniProt Q96LD8); format: functional;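 also: luminescence read-out of SENP8 inhibition, dose-response confirmation following an ultra-high-throughput screen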
T2 sequence (Q96LD8 whole entry): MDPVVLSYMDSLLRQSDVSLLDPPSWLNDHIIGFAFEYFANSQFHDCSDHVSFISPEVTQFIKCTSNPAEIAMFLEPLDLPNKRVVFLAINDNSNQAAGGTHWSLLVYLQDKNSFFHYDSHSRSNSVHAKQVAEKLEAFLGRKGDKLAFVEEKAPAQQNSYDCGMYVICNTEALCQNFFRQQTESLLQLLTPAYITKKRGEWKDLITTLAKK

[3] = target: T3, Calpain-2 catalytic subunit (Sus scrofa, UniProt P43367); experiment: m-calpain protease blockers, concentration series – biochemical, fluorogenic peptide substrate, dose response (AID 1420); format: functional
T3 sequence (P43367 whole entry): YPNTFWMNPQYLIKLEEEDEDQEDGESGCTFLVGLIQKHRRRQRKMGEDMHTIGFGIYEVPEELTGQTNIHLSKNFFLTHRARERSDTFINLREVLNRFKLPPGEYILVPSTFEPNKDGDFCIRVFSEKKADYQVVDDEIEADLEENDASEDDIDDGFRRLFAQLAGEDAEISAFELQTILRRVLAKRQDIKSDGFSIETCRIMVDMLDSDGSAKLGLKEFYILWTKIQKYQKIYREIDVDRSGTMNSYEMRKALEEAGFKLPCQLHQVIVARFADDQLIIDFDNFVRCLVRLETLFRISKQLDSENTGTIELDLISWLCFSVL

[4] = target: T4, Sentrin-specific protease 6 (Homo sapiens, UniProt Q9GZR1); format: functional;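 also: Luminescence-based dose-response confirmatory assay of SENP6 inhibition, following up an ultra-high-throughput screen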
T4 sequence (Q9GZR1 whole entry): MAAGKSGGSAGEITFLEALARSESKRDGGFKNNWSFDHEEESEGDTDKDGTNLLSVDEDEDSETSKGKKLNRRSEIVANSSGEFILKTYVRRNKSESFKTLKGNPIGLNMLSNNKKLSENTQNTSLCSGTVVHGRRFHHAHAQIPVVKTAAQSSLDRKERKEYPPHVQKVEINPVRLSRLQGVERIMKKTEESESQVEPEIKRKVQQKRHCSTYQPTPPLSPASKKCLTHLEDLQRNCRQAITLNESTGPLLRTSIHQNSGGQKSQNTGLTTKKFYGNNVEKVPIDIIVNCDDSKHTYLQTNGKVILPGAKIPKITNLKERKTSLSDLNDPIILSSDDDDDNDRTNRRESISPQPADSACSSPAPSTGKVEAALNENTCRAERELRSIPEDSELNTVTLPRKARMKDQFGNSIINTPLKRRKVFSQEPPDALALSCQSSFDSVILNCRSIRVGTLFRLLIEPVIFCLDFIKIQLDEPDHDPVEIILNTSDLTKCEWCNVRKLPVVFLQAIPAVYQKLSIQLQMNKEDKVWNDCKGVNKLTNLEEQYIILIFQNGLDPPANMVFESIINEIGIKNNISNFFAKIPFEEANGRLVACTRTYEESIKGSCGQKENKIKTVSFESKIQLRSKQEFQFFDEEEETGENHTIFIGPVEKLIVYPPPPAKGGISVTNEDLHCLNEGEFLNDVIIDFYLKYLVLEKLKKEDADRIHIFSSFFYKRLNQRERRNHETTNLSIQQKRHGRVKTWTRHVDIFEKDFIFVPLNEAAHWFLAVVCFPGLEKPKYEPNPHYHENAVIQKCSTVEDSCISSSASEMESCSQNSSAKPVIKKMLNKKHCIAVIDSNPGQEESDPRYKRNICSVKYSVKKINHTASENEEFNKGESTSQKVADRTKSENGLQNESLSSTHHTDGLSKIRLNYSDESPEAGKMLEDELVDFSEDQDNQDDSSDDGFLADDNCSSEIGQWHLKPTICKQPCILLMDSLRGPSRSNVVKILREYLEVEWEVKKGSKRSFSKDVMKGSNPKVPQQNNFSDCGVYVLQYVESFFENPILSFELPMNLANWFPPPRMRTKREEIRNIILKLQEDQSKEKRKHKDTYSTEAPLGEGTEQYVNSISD

Caspase-3 = target: T5, Caspase-3 (Homo sapiens, UniProt P42574); format: functional;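 also: Dose-response selectivity test against caspase-3 for candidate inhibitors of sentrin-specific proteases (SENPs)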
T5 sequence (P42574 whole entry): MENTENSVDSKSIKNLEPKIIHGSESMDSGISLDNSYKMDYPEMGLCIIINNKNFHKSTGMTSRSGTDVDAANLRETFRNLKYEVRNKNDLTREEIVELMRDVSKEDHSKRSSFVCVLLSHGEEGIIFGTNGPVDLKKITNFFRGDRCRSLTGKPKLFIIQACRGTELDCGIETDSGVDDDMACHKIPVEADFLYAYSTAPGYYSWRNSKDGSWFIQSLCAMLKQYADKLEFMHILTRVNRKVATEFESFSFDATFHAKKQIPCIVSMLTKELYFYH

Cytochrome P450 3A4 = Cytochrome P450 3A4 (Homo sapiens, UniProt P08684); conditions: Potency;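 also: confirmatory qHTS run detecting inhibitors and substrates of CYP3A4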
HeLa = experiment: ATP-based viability loss in HeLa cells – cell-based, CellTiter-Glo luminescence, cherry-pick samples, cytotoxicity control for MITF activator project, dose response (AID 540259); format: functional; conditions: Homo sapiens
Vero = experiment: cells; format: functional; conditions: Chlorocebus sabaeus
[5] = microbe, parasite or virus in culture; format: functional; conditions: Mycobacterium tuberculosis
[6] = target: T6, Ubiquitin-conjugating enzyme E2 N (Homo sapiens, UniProt P61088); format: functional;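 also: Dose-response confirmation in a TR-FRET assay detecting UBC13-driven polyubiquitin chain formation, inhibition measured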
T6 sequence (P61088 whole entry): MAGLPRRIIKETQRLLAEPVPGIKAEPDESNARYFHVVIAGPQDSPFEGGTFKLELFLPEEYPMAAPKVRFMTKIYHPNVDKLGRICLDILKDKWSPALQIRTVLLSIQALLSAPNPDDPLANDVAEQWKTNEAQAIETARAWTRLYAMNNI

[7] = target: Heat shock protein HSP 90-alpha (Homo sapiens, UniProt P07900); format: functional, organism-based
[8] = Luminescence Cell-Based Dose Retest to Confirm Inhibitors of Cancer Stem Cells. [Related pubchem assays (depositor defined):AID2717, AID2721]; format: functional; conditions: Homo sapiens
[9] = target: T7, Mannose-6-phosphate isomerase (Homo sapiens, UniProt P34949); experiment: phosphomannose isomerase inhibition – biochemical, fluorescence intensity, confirmation (AID 1535)
T7 sequence (P34949 whole entry): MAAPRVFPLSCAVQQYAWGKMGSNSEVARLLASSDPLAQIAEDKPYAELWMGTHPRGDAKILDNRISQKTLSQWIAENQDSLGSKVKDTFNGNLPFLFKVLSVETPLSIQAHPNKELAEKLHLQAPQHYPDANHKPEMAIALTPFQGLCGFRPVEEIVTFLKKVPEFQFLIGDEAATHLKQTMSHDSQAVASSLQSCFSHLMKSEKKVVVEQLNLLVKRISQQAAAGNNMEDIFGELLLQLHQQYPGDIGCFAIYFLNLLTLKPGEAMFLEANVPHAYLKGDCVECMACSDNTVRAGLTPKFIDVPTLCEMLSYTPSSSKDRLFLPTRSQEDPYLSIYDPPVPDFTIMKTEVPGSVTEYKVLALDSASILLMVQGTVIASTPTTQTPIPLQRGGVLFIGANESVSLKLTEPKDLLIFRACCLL

H9c2 = experiment: cells; format: functional, cell-based; conditions: Rattus norvegicus, H9c2, Myocardium;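 also: confirmatory concentration-response retest of ultra-high-throughput screening hits for modulation of myocardial damage; cell death induced by hydrogen peroxide oxidative stress; compound pretreatment for 60 min then peroxide exposure for 2 h; potency is for protecting the cells against peroxide damage rather than for killing them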
cells = format: functional
[10] = THP-1 cell cytotoxicity, dose response, cytotoxicity control for non-replicating M. tuberculosis project (AID 489025); format: functional
[11] = Vero E6 cell cytotoxicity, dose response, cytotoxicity control for non-replicating M. tuberculosis project, secondary assay (AID 492998); format: functional, VeroE6; conditions: Vero C1008

Sequence of Cytochrome P450 3A4 (P08684 whole entry): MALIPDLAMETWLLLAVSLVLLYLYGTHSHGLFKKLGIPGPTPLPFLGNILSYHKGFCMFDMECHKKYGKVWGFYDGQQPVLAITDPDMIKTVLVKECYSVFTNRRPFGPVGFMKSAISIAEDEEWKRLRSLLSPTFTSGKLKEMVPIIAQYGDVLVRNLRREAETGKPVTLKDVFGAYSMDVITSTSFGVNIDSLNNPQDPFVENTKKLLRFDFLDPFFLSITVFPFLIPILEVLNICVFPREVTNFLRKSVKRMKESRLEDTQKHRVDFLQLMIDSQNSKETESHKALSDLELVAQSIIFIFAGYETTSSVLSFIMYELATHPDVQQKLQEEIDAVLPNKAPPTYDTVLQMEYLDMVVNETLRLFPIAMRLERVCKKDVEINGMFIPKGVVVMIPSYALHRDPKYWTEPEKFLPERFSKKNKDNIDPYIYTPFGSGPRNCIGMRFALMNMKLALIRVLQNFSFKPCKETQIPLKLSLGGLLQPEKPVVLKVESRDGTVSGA

For `O=C(Nc1ccc2c(c1)CCC2)c1cccc(S(=O)(=O)Nc2ccccc2Cl)c1`, the IC50 [1] was 23.9 µM (active), the IC50 [2] was 92.9 µM (active) and the IC50 [3] was 6.7 µM (not active). For the same compound, the IC50 [4] was 47.3 µM (active) and the IC50 (Caspase-3) was 70.3 µM (active).

With `COCCNC(=O)C1(CC(C)C)C=CCN1C(=O)OC` (stereo not drawn) the AC50 (Cytochrome P450 3A4) was 0.1 µM (inconclusive).

For `CC1(C)CCCC2(C)C3C(O)CC2(C)C(O)C31` (stereo not drawn), the AC50 (Cytochrome P450 3A4) was 31.6 µM (inconclusive).

With `COc1cc(CNCc2ccccn2)ccc1OCc1ccc(Cl)c(Cl)c1` the AC50 (HeLa) was 45.5 µM (active) and the CC50 (Vero) was > 25 µM (active).

In the case of `CCOC(=O)C1=CC(OC(CC)CC)C(NC(C)=O)C(N)C1` (stereo not drawn), the AC50 (Cytochrome P450 3A4) is reported as 25.1 µM (inconclusive).

For `CC(C)(C)c1cc(-c2nc(N)nc(N)n2)c(O)c(C(C)(C)C)c1`, the CC50 [5] was 38.3 µM (active), the IC50 [6] was > 20 µM (inactive) and the AC50 [7] was 28.9 µM (active). The AC50 [8] was 3.65 µM (active).

In the case of `COc1ccc(N(C(=O)c2ccncc2)S(=O)(=O)c2ccccc2)cc1`, the AC50 [7] is reported as 1.77 µM (active).

For `CC(C)(C)c1ccc(-c2cc(C(=O)NNC(=O)Nc3ccccc3)c3ccccc3n2)cc1`, the AC50 (HeLa) was 69.9 µM (active).

In the case of `O=C(N/N=C\c1ccccc1O)c1ccccc1O`, the AC50 (Cytochrome P450 3A4) is reported as 6.31 µM (inconclusive).

With `COc1ccccc1OCc1cc(C(=O)N2CCN(C)C(c3ccccc3)C2)no1` (stereo not drawn) the AC50 [7] was 4.78 µM (active).

In the case of `Cc1[nH]c2ccc(C(=O)N3CCN(c4cccc(Cl)c4)CC3)cc2c1C`, the AC50 [7] is reported as 7.72 µM (active).

In the case of `COc1ccc(/N=c2\ssnc2Cl)cn1`, the IC50 [9] is reported as 29.8 µM (active).

With `Cc1cc(/N=c2\ssnc2Cl)n[nH]1` the IC50 [9] was 5.94 µM (active).

With `COC(=O)c1ccc2[nH]c(C3(O)CCCCC3)c(C)c2c1` the AC50 (HeLa) was 44.3 µM (active).

With `O=C(N/N=C/c1cccc2cccnc12)[C@H]1C[C@@H]1c1ccccc1` the IC50 (H9c2) was 11.2 µM (active), the CC50 [5] was > 40 µM (active) and the IC50 (cells) was 33.1 µM (active). The CC50 [10] was 32.9 µM (active) and the CC50 [11] was > 20 µM (active).

In the case of `Cc1ccc(O)c(/N=N\c2ccccc2)n1`, the AC50 (Cytochrome P450 3A4) is reported as 5.01 µM (inconclusive).
